These are literature values, as cited in patent publication US20130280327A1, “ZOLPIDEM-BASED ORODISPERSIBLE PHARMACEUTICAL TABLET” (Sanofi, priority 2010, published 2013).

Structures are written as SMILES.

The conditions of the data set: hypnotic action, oral, conventional formulations.

Take `Cc1ccc(-c2nc3ccc(C)cn3c2CC(=O)N(C)C)cc1` [zolpidem]: the duration of action entry is reported as “up to 6 hours”.
